Measured values from ChEMBL document CHEMBL4229464, “Generation of methylated violapyrones with improved anti-influenza A virus activity by heterologous expression of a type III PKS gene in a marine Streptomyces strain” (Bioorg Med Chem Lett, 2018).
pIC50: −log10 of the molar value.

Assays:
[1] = Cytotoxicity against MDCK cells assessed as reduction in cell viability after 48 hrs by crystal violet staining based method; design: species or system Canis lupus familiaris; details: dog
Staphylococcus aureus = assay: Antibacterial activity against methicillin-resistant Staphylococcus aureus CCARM 3090 at 10 mg/ml after 20 hrs by agar diffusion method; type: functional; details: CCARM 3090, 20 h, read-out: IZ
Influenza A virus = assay: Antiviral activity against Influenza A virus (A/Virginia/ATCC1/2009(H1N1)) infected in MDCK cells assessed as inhibition of virus-induced cytopathicity after 48 hrs by crystal violet staining based method; type: functional, organism-based
H3N2 subtype = assay: Antiviral activity against Influenza A virus (A/Aichi/2/1968(H3N2)) infected in MDCK cells assessed as inhibition of virus-induced cytopathicity after 48 hrs by crystal violet staining based method; type: functional, organism-based

Structure (SMILES) | CC50 at 48 h [1] | zone of inhibition at 10000 µg/mL (Staphylococcus aureus) | pIC50 (Influenza A virus) | pIC50 (H3N2 subtype)
COc1c(CCCC(C)C)coc(=O)c1C | 2000 µM | 0 mm | 4.23 | 4.02
CCCCCCCc1coc(=O)c(C)c1O | 2200 µM | 11 mm | 4.13 | 4.13
Cc1c(O)c(CCCC(C)C)coc1=O | 1240 µM | 0 mm | 4.22 | 3.98
CCCCCCCc1coc(=O)c(C)c1OC | 2230 µM | 0 mm | 4.51 | 4.34
CCC(C)CCCCc1coc(=O)c(C)c1O (stereo not given) | 1620 µM | 18 mm | 4.10 | 4.08
Cc1c(O)c(CCCCC(C)C)coc1=O | 1290 µM | 11 mm | 3.88 | 3.82
NC(=O)c1ncn([C@@H]2O[C@H](CO)[C@@H](O)[C@H]2O)n1 [RIBAVIRIN] | 1370 µM | – | 4.18 | 4.00
CCC(C)CCCCc1coc(=O)c(C)c1OC (stereo not given) | 1550 µM | 0 mm | 4.16 | 4.14
COc1c(CCCCC(C)C)coc(=O)c1C | 1880 µM | 6 mm | 4.19 | 4.19
